Measurements: patent US10995068B2, “Synthetic sphingolipid-like molecules, drugs, methods of their synthesis and methods of treatment” (The Regents of the University of California, priority 2015, dated 2021)

What was measured:
[1] = test system: K-RasG12D expressing cells; experiment: Macropinosome fusion with lysosomes; type: cell-based; settings: dextran
Description: In cells with activated Ras, macropinocytosis might also confer resistance to nutrient transporter down-regulation. However, PI(3,5)P2 is also required for macropinosome degradation. […] Macropinosomes that fail to fuse with lysosomes would not be able to supply nutrients, such as amino acids. Thus, by disrupting PIKfyve localization, sphingolipid-like compounds limit access to lysosome-derived nutrients at the same time it down-regulates transporters for amino acids and glucose.
Light Microscopy: Brightfield and epifluorescence microscopy were conducted using a Nikon TE2000-S fluorescence microscope; confocal microscopy was performed on a Zeiss LSM780 confocal microscope or Nikon Eclipse Ti spinning disk confocal microscope. […] Co-localization was determined using JACoP plugin in ImageJ software. Macropinocytosis was measured after 16 h incubation in serum-free DMEM. p53−/−; LSL-K-RasG12D MEFs before (LSL) or after (KRasG12D) introduction of Cre were serum starved for 16 h and then treated with macropinocytosis inhibitor 5-(N-ethyl-N-isopropyl) amiloride (EIPA, 75 μM) for 1 h or SH-BC-893 for 6 h. Oregon Green dextran (Life Technologies, cat #D7173) (1 mg/mL) and Lysotracker Red (Life Technologies, cat #L-7525) (1:2,000 dilution) were added for 30 min and live cells were evaluated on the spinning disc confocal microscope. […]

SW620 cells = experiment: Phosphorylation in intact cells by UPLC-MS/MS, SW620; type: in vitro ADME, human; settings: 10 μM, 16 h incubation, percent of total compound recovered by UPLC-MS/MS
Protocol: Mass spectrometric quantification: One million PC3 or 5 million SW620 cells in one well of a 6 well plate are treated with 10 μM FTY720 or 5 for 16 h. Media (100 μl) is removed from the well and combined with 100 μl of acetonitrile. Cells are collected by scraping, pelleted, and re-suspended in 100 μl of HPLC-grade water followed by the addition of 100 μl acetonitrile. Seventy-five nanograms of the compounds not being quantified (FTY720 and FTY720-P for analysis of the phosphorylation of 5, or 5 and 5-P for the analysis of FTY720/FYT720-P) is added to serve as an internal standard to allow correction for loss of compound during sample preparation. […] Insoluble material is again removed by centrifugation and the supernatant analyzed for compound content. Twenty microliters of this de-proteinated sample is analyzed by UPLC-MS/MS (Waters Micromass Quattro Premier XE) equipped with a C18 reversed phase column (Waters) using an acetonitrile (+0.2% acetic acid) gradient elution. […] The cone voltages are 30V for FTY720 and 5, and 20V for FTY720-P and 5-P. A standard curve is generated using pure compounds to allow for quantification; standard curves were linear from 50-1000 ng/ml with an R^2 of 0.98 or greater. […]

bound NADH fraction = experiment: NADH fluorescence lifetime imaging (FLIM); type: cell-based; settings: mimicked amino acid and glucose starvation
Description: Cells adapt to nutrient limitation by increasing oxidative phosphorylation. The relative rate of glycolysis and oxidative phosphorylation can be monitored by measuring the fluorescence lifetime of the reduced form of nicotinamide adenine dinucleotide (NADH). A higher ratio of protein-bound to free NADH (increased lifetime) correlates with increased oxidative phosphorylation in multiple cell types both in vitro and in vivo. Oligomycin and rotenone/antimycin A are molecules known in the field to induce glycolysis, whereas 2-deoxy-glucose (2DG) is an inhibitor of glycolysis and subsequently increases oxidative phosphorylation. Starvation of cells by removing access to glucose and amino acids is also known to increase oxidative phosphorylation. […]
NADH Fluorescence Lifetime Imaging Microscopy (FLIM). […] The excitation wavelength was 740 nm and a dichroic filter (690 nm) was used to separate the fluorescence signal from the laser light. […] The fluorescence was detected by a hybrid detector (HPM-100 Hamamatsu). […] The FLIM system was calibrated during each imaging session by measuring the fluorescence decay of fluorescein with a single exponential of 4.04 nsec. […] Data was processed by the SimFCS software developed at the Laboratory of Fluorescence Dynamics at UCI. […]

CCCCCCCCc1ccc([C@H]2CCN[C@@H]2CO)cc1.Cl [Compound 5, (2S,3R)-2-(hydroxymethyl)-3-(4-octylphenyl)Pyrrolidinium chloride]
macropinosome fusion with lysosomes [1]: dramatically reduced macropinosome fusion with lysosomes | efficiency of phosphorylation in intact cells (SW620 cells): phosphorylated slightly more efficiently than FTY720 | bound NADH fraction (bound NADH fraction): increasing
